Measured values published in patent US20110105509A1 (Wyeth, LLC, priority 2009, published 2011).
pIC50: −log10 of the molar value.

target: T1, CRTH2 (Homo sapiens, UniProt Q9Y5Y4); assay: FRET based competitive immunoassay (cAMP) in CRTH2 expressing CHO cells; assay type: cell-based; settings: CRTH2 expressing CHO cells incubated with forskolin and PGD2; Eu3+ cryptate-labeled anti-cAMP and d2-labeled cAMP
T1 construct: expressed in transfected cells; host or cells: CHO cells
T1 sequence (Q9Y5Y4 1-395): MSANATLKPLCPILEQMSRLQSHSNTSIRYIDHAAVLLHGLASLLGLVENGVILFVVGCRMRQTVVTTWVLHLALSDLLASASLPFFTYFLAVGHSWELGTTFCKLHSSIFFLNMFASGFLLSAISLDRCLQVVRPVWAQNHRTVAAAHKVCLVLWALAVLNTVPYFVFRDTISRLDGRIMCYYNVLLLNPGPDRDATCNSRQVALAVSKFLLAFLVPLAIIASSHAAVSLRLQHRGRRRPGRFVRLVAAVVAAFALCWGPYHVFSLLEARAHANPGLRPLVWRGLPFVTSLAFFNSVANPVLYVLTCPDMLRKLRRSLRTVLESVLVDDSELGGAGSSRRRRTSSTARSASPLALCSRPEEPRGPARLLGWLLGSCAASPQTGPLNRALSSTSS
Protocol: FRET Assay: To evaluate potency compounds were tested in a FRET based competitive immunoassay in which CRTH2 expressing CHO cells were incubated in the presence of forskolin and PGD2 along with Eu3+ cryptate-labeled anti-cAMP and d2-labeled cAMP.

SMILES	pIC50
Cc1c(Cc2ccc(=O)n(Cc3ccc(C(F)(F)F)cc3)n2)c2cc(Cl)ccc2n1CC(=O)O [Example 81, 2-(5-Chloro-2-methyl-3-((6-oxo-1-(4-(trifluoromethyl)benzyl)-1,6-dihydropyridazin-3-yl)-methyl)-1H-indol-1-yl)acetic acid]	7.64
Cc1c(-c2nn(CCCC(F)(F)F)c(=O)c3ccccc23)c2cc(F)ccc2n1CC(=O)O [Example 125, 2-(5-fluoro-2-methyl-3-(4-oxo-3-(4,4,4-trifluorobutyl)-3,4-dihydro-phthalazin-1-yl)-1H-indol-1-yl)acetic acid]	8.40
Cc1c(Cc2ccc(=O)n(CCCC(F)(F)F)n2)c2cc(F)ccc2n1CC(=O)O [Example 344, 2-(5-fluoro-2-methyl-3-((6-oxo-1-(4,4,4-trifluorobutyl)-1,6-dihydropyridazin-3-yl)-methyl)-1H-indol-1-yl)acetic acid]	7.77
Cc1c(-c2ccc(=O)n(Cc3ccc(F)cc3F)c2)c2ccccc2n1CC(=O)O [Example 275, 2-(3-(1-(2,4-difluorobenzyl)-6-oxo-1,6-dihydropyridin-3-yl)-2-methyl-1H-indol-1-yl)acetic acid]	7.52
Cc1c(Cc2ccc(=O)n(Cc3cccc(F)c3F)c2)c2ccccc2n1CC(=O)O [Example 29]	7.14
Cc1c(-c2nn(Cc3ccccc3C(F)(F)F)c(=O)c3ccccc23)c2cc(F)ccc2n1CC(=O)O [Example 202, 2-(5-fluoro-2-methyl-3-(4-oxo-3-(2-(trifluoromethyl)benzyl)-3,4-dihydrophthalazin-1-yl)-1H-indol-1-yl)acetic acid]	8.05
Cc1c(-c2ccc(=O)n(Cc3ccccc3)n2)c2cccc(Br)c2n1CC(=O)O [Example 246, 2-(3-(1-benzyl-6-oxo-1,6-dihydropyridazin-3-yl)-7-bromo-2-methyl-1H-indol-1-yl)-acetic acid]	< 5.70
Cc1cc(Cn2nc(-c3c(C)n(CC(=O)O)c4ccc(Cl)cc34)c3ccccc3c2=O)c2ccccc2n1 [Example 104, 2-(5-chloro-2-methyl-3-(3-((2-methylquinolin-4-yl)methyl)-4-oxo-3,4-dihydro-phthalazin-1-yl)-1H-indol-1-yl)acetic acid]	8.00
CCn1nc(-c2c(C)n(CC(=O)O)c3ccc(Cl)cc23)ccc1=O [Example 150, 2-(5-chloro-3-(1-ethyl-6-oxo-1,6-dihydropyridazin-3-yl)-2-methyl-1H-indol-1-yl)acetic acid]	6.25
Cc1c(-c2ccc(=O)n(Cc3cc(F)c(F)cc3F)n2)c2cc(F)ccc2n1CC(=O)O [Example 70, 2-(5-fluoro-2-methyl-3-(6-oxo-1-(2,4,5-trifluorobenzyl)-1,6-dihydro-pyridazin-3-yl)-1H-indol-1-yl)acetic acid]	7.80
Cc1c(Cc2ccc(=O)n(Cc3ccc(F)c(F)c3)c2)c2cc(F)ccc2n1CC(=O)NS(C)(=O)=O [Example 321, 2-(3-((1-(3,4-difluorobenzyl)-6-oxo-1,6-dihydropyridin-3-yl)methyl)-5-fluoro-2-methyl-1H-indol-1-yl)-N-(methylsulfonyl)acetamide]	< 6.00
COc1ccc(Cn2nc(-c3c(C)n(CC(=O)O)c4ccc(Cl)cc34)ccc2=O)cc1 [Example 148, 2-(5-chloro-3-(1-(4-methoxybenzyl)-6-oxo-1,6-dihydropyridazin-3-yl)-2-methyl-1H-indol-1-yl)acetic acid]	7.38
Cc1c(-c2ccc(=O)n(Cc3ccc(Cl)cc3)n2)c2cc(Cl)ccc2n1CC(=O)O [Example 9, 2-(5-Chloro-3-(1-(4-chlorobenzyl)-6-oxo-1,6-dihydropyridazin-3-yl)-2-methyl-1H-indol-1-yl)acetic acid]	7.68
Cc1c(-c2nn(Cc3cccc(F)c3F)c(=O)c3ccccc23)c2cc(F)ccc2n1CC(=O)O [Example 112, 2-(3-(3-(2,3-difluorobenzyl)-4-oxo-3,4-dihydrophthalazin-1-yl)-5-fluoro-2-methyl-1H-indol-1-yl)acetic acid]	7.72
Cc1c(Cc2ccc(=O)n(Cc3cccc(F)c3)c2)c2cc(F)ccc2n1CC(=O)O [Example 39, 2-(5-Fluoro-3-((1-(3-fluorobenzyl)-6-oxo-1,6-dihydropyridin-3-yl)methyl)-2-methyl-1H-indol-1-yl)acetic acid]	8.40
Cc1c(-c2nn(CC(N)=O)c(=O)c3ccccc23)c2cc(F)ccc2n1CC(=O)O [Example 258, {3-[3-(2-amino-2-oxoethyl)-4-oxo-3,4-dihydrophthalazin-1-yl]-5-fluoro-2-methyl-1H-indol-1-yl}acetic acid]	7.96
Cc1c(-c2ccc(=O)n(Cc3ccccn3)c2)c2cc(F)ccc2n1CC(=O)O [Example 309, 2-(5-fluoro-2-methyl-3-(6-oxo-1-(pyridin-2-ylmethyl)-1,6-dihydropyridin-3-yl)-1H-indol-1-yl)acetic acid]	6.98

SMILES	pIC50
Cc1c(-c2nn(CC(C)(C)Oc3ccccc3)c(=O)c3ccccc23)c2cc(F)ccc2n1CC(=O)O [Example 220, 2-(5-fluoro-2-methyl-3-(3-(2-methyl-2-phenoxypropyl)-4-oxo-3,4-dihydrophthalazin-1-yl)-1H-indol-1-yl)acetic acid]	7.74
Cc1c(-c2ccc(=O)n(CCCC(F)(F)F)n2)c2cc(F)ccc2n1CC(=O)O [Example 163, 2-(5-fluoro-2-methyl-3-(6-oxo-1-(4,4,4-trifluorobutyl)-1,6-dihydropyridazin-3-yl)-1H-indol-1-yl)acetic acid]	6.06
Cc1c(-c2ccc(=O)n(Cc3ccccc3)n2)c2cc(S(C)(=O)=O)ccc2n1CC(=O)O [Example 214, 2-(3-(1-benzyl-6-oxo-1,6-dihydropyridazin-3-yl)-2-methyl-5-(methylsulfonyl)-1H-indol-1-yl)acetic acid]	6.45
Cc1c(-c2ccc(=O)n(CCc3ccc(F)cc3)n2)c2ccccc2n1CC(=O)O [Example 229, 2-(3-(1-(4-fluorophenethyl)-6-oxo-1,6-dihydropyridazin-3-yl)-2-methyl-1H-indol-1-yl)acetic acid]	6.87
Cc1c(Cc2ccc(=O)n(CC(F)(F)F)c2)c2cc(F)ccc2n1CC(=O)O [Example 46]	7.26
Cc1c(Cc2cn(Cc3ccccc3)c(=O)c3ccccc23)c2cc(Cl)ccc2n1CC(=O)O [Example 87, 2-(3-((2-benzyl-1-oxo-1,2-dihydroisoquinolin-4-yl)methyl)-5-chloro-2-methyl-1H-indol-1-yl)acetic acid]	6.68
CCn1nc(-c2c(C)n(CC(=O)O)c3ccccc23)ccc1=O [Example 182, 2-(3-(1-ethyl-6-oxo-1,6-dihydropyridazin-3-yl)-2-methyl-1H-indol-1-yl)-acetic acid]	5.76
Cc1c(Cc2ccc(=O)n(Cc3cc(F)cc(F)c3)c2)c2ccccc2n1CC(=O)O [Example 35, 2-(3-((1-(3,5-Difluorobenzyl)-6-oxo-1,6-dihydropyridin-3-yl)methyl)-2-methyl-1H-indol-1-yl)acetic acid]	7.19
Cc1c(Cc2ccc(=O)n(Cc3ccncc3)n2)c2cc(F)ccc2n1CC(=O)O [Example 194, 2-(5-fluoro-2-methyl-3-((6-oxo-1-(pyridin-4-ylmethyl)-1,6-dihydro-pyridazin-3-yl)methyl)-1H-indol-1-yl)acetic acid]	7.01
Cc1c(-c2nn(CCc3ccc(F)cc3)c(=O)c3ccccc23)c2cc(F)ccc2n1CC(=O)O [Example 227, 2-(5-fluoro-3-(3-(4-fluorophenethyl)-4-oxo-3,4-dihydrophthalazin-1-yl)-2-methyl-1H-indol-1-yl)acetic acid]	8.52
Cc1c(Cc2ccc(=O)n(CC(F)(F)F)c2)c2cc(Cl)ccc2n1CC(=O)O [Example 53, 2-(5-Chloro-2-methyl-3-((6-oxo-1-(2,2,2-trifluoroethyl)-1,6-dihydropyridin-3-yl)methyl)-1H-indol-1-yl)acetic acid]	7.26
Cc1c(-c2ccc(=O)n(Cc3ccccc3C(F)(F)F)n2)c2cc(Cl)ccc2n1CC(=O)O [Example 211, 2-(5-chloro-2-methyl-3-(6-oxo-1-(2-(trifluoromethyl)benzyl)-1,6-dihydro-pyridazin-3-yl)-1H-indol-1-yl)acetic acid]	7.66
Cc1c(-c2ccc(=O)n(Cc3ccc(F)cc3)n2)c2ccccc2n1CC(=O)O [Example 189, 2-(3-(1-(4-fluorobenzyl)-6-oxo-1,6-dihydropyridazin-3-yl)-2-methyl-1H-indol-1-yl)acetic acid]	7.35
Cc1c(Cc2ccc(=O)n(Cc3cccc(F)c3)c2)c2ccccc2n1CC(=O)O [Example 34, 2-(3-((1-(3-Fluorobenzyl)-6-oxo-1,6-dihydropyridin-3-yl)methyl)-2-methyl-1H-indol-1-yl)acetic acid]	7.27
Cc1c(-c2ccc(=O)n(Cc3cccc(F)c3)c2)c2cc(Cl)ccc2n1CC(=O)O [Example 295, 2-(5-chloro-3-(1-(3-fluorobenzyl)-6-oxo-1,6-dihydropyridin-3-yl)-2-methyl-1H-indol-1-yl)acetic acid]	7.96
COc1ccc2c(c1)c(-c1nn(C(C)C)c(=O)c3ccccc13)c(C)n2CC(=O)O [Example 19, 2-(3-(3-Isopropyl-4-oxo-3,4-dihydrophthalazin-1-yl)-5-methoxy-2-methyl-1H-indol-1-yl)acetic acid]	6.96
